System: B16F10 tumor-bearing mice
Experiment: Luciferase expression tumor/whole body after intratumoral injection, B16F10 tumor-bearing mice
Type: in vivo, C57BL/6 mice
Details: for LNP (tumor/whole body)% ratio of luciferase expression: cationic lipid:DSPC:PEG-DMG:cholesterol 50:10:1.5:38.5 (groups 1-1 to 1-3); for LNP (tumor/whole body)% ratio of luciferase expression / LPP (tumor/whole body)% ratio of luciferase expression: 5 μg luciferase mRNA intratumoral, 6 hours; for LPP (tumor/whole body)% ratio of luciferase expression: cationic lipid:DSPC:PEG-DMG:cholesterol 50:10:1.5:38.5 (groups 1-4 to 1-6)
Method: (§1) Female C57BL/6 mice (Beijing Vital River Laboratory Animal Technology Co., Ltd.) of 6 weeks of age with a weight of around 20 g were used, and each mouse was injected subcutaneously unilaterally with 1×10^6 murine-derived cutaneous melanoma cells, B16F10 cells. When tumors grew to a size of about 450 mm^3, B16F10 tumor-bearing mice were divided into 6 groups (1-1, 1-2, 1-3, 1-4, 1-5, and 1-6 groups, with 3 mice per group), and LPP and LNP solutions (50 μL) containing 5 μg of luciferase mRNA prepared by the prescriptions were respectively taken and administered to the mice by intratumoral injection. 6 hours after the administration, mice were injected intraperitoneally with a 150 mg/kg […] substrate. The bioluminescence was measured in a Xenogen IVIS-200 imaging system 7 minutes after substrate injection to evaluate the expression and distribution of the luciferase mRNA in the mice.
as §1, with “into 8” for “into 6”, “groups (2-1, 2-2, 2-3, 2-4, 2-5, 2-6, 2-7,” for “groups (1-1, 1-2, 1-3, 1-4, 1-5,”, “and 2-8” for “and 1-6”, “and” for “and LPP and LNP”
as §1, with “mm^3, the” for “mm^3, B16F10 tumor-bearing”, “into 8” for “into 6”, “groups (3-1, 3-2, 3-3, 3-4, 3-5, 3-6, 3-7, 3-8” for “groups (1-1, 1-2, 1-3, 1-4, 1-5, and 1-6”, “and” for “and LPP and LNP”

Structure (SMILES)	LNP (tumor/whole body)% ratio of luciferase expression [%]	LPP (tumor/whole body)% ratio of luciferase expression [%]	ratio of luciferase expression of tumor/whole body, rank among cationic lipids (Example 3, versus ALC-0315 and SW-II-127)
CCCCCCCCC(CCCCCC)C(=O)OCCCCCCN(CCCCO)CCCCCCOC(=O)C(CCCCCC)CCCCCCCC (stereo not shown) [ALC-0315, reference compound]	4.9	11.2 ± 7.9	–
CCCCCCCCC(CCCCCCCC)OC(=O)CCCCCCCN(CCO)CCCCCCC(=O)OCc1ccc(CCCCCC)cc1 [SW-II-127]	15.0 ± 18.5	25.7 ± 15.1	–
CCCCCCCCCOC(=O)CCCCCCCN(CCO)CCCCCCCC(=O)OCCCc1ccc(CCCCC)c(CCCCC)c1 [SW-II-135-1]	43.6 ± 34.7	58.6 ± 36.4	highest ratio of luciferase expression of tumor/whole body

Reference: patent publication US20250387486A1, “LIPID COMPOSITION” (STEMIRNA THERAPEUTICS CO., LTD., priority 2022, published 2025)
